Test results as given in the CheMixHub ionic liquid set.

Assay: xn = mol fraction of the nth substance listed
Conditions: 101 kPa

CCCCCCCCCCCCCC[n+]1ccccc1.O=C([O-])C(O)c1ccccc1 + NCC(=O)NCC(=O)O + O
electrical conductivity [S/m]
Conditions | 303.15 K | 308.15 K | 313.15 K
x1 = 5.26e-06, x2 = 0.0009002 | – | 0.00433 | 0.005
x1 = 6.01e-06, x2 = 0.001799 | – | 0.0066 | 0.0077
x1 = 6.85e-06, x2 = 0 | – | 0.0034 | 0.0037
x1 = 9.97e-06, x2 = 0.0009002 | – | 0.0061 | 0.0069
x1 = 1.185e-05, x2 = 0.001799 | – | 0.0088 | 0.01
x1 = 1.424e-05, x2 = 0 | – | 0.0065 | 0.0071
x1 = 1.486e-05, x2 = 0.0009002 | – | 0.008 | 0.009
x1 = 1.713e-05, x2 = 0.001799 | – | 0.0107 | 0.0122
x1 = 2.084e-05, x2 = 0.0009002 | – | 0.0102 | 0.0114
x1 = 2.126e-05, x2 = 0 | – | 0.0093 | 0.0101
x1 = 2.26e-05, x2 = 0.001799 | – | 0.0128 | 0.0144
x1 = 2.537e-05, x2 = 0.0009002 | – | 0.012 | 0.0134
x1 = 2.788e-05, x2 = 0.001799 | – | 0.0146 | 0.0165
x1 = 2.811e-05, x2 = 0 | – | 0.0122 | 0.0131
x1 = 3.117e-05, x2 = 0.0009002 | – | 0.014 | 0.0157
x1 = 3.335e-05, x2 = 0.001799 | – | 0.0164 | 0.0184
x1 = 3.46e-05, x2 = 0 | – | 0.0145 | 0.0157
x1 = 3.679e-05, x2 = 0.0009002 | – | 0.0159 | 0.0178
x1 = 3.864e-05, x2 = 0.001799 | – | 0.018 | 0.0203
x1 = 4.108e-05, x2 = 0 | 0.0146 | 0.0161 | 0.0179
x1 = 4.386e-05, x2 = 0.0009001 | 0.0157 | 0.0177 | 0.0199
x1 = 4.574e-05, x2 = 0.001799 | 0.0174 | 0.0197 | 0.0222
x1 = 4.811e-05, x2 = 0 | 0.0161 | 0.0179 | 0.0198
x1 = 5.11e-05, x2 = 0.0009001 | 0.017 | 0.0192 | 0.0215
x1 = 5.321e-05, x2 = 0.001799 | 0.0187 | 0.0213 | 0.024
x1 = 5.388e-05, x2 = 0 | 0.0172 | 0.0191 | 0.0211
x1 = 5.781e-05, x2 = 0.0009001 | 0.0182 | 0.0205 | 0.023
x1 = 5.982e-05, x2 = 0 | 0.0182 | 0.0202 | 0.0224
x1 = 6.069e-05, x2 = 0.001799 | 0.02 | 0.0227 | 0.0254
x1 = 6.433e-05, x2 = 0.0009001 | 0.0193 | 0.0218 | 0.0244
x1 = 6.559e-05, x2 = 0 | 0.0192 | 0.0213 | 0.0236
x1 = 6.816e-05, x2 = 0.001799 | 0.0213 | 0.024 | 0.027
x1 = 7.081e-05, x2 = 0 | 0.02 | 0.0223 | 0.0246
x1 = 7.104e-05, x2 = 0.0009001 | 0.0204 | 0.023 | 0.0258
x1 = 7.454e-05, x2 = 0.001799 | 0.0222 | 0.0252 | 0.0283
x1 = 7.604e-05, x2 = 0 | 0.0209 | 0.0232 | 0.0258
x1 = 7.81e-05, x2 = 0.0009001 | 0.0217 | 0.0244 | 0.0273
x1 = 8.072e-05, x2 = 0 | 0.0217 | 0.0241 | 0.0266
x1 = 8.128e-05, x2 = 0.001799 | 0.0233 | 0.0265 | 0.0298
